Experimental data reported in patent US7432375B2, “JNK inhibitors” (Eisai R & D Management Co., Ltd., priority 2003, dated 2008).

What was measured:
Format in all cases: biochemical
p38 MAP kinase = molecular target: T1, p38 MAP kinase (Homo sapiens, UniProt Q16539); assay: p38 ELISA; details: phosphorylation of GST-ATF2, 50 μM ATP
T1 construct: purchased Upstate
Experimental: Active p38 kinase (100 ng; Upstate) was added to 2 μg GST-ATF2 substrate (NEB) in 250 mM Hepes pH 7.5/100 mM MgAc/50 μM ATP (final) in the presence or absence of compounds in 50 μl. The mixture was incubated at 30° C. for 1 hour, and then diluted with 200 μl PBS-Tween (0.05%). From this, duplicate volumes of 100 μl were added to a Reacti-Bind glutathione coated plate (Pierce) and incubated for 1 hour. After washing 3 times with PBS-Tween (0.05%), rabbit anti-phospho-ATF2 (Thr71) antibody (NEB) was added at 1:500, and incubated for another hour at room temperature. After 3 additional washes with PBS-Tween (0.05%), […] anti-rabbit IgG alkaline phosphatase-conjugated secondary antibody (Sigma) was added at 1:1000, the reaction was incubated for a further hour, washed 3 times, and then phosphatase substrate (Sigma) was added (100 μl per well; 3 tablets in 5 ml water). After incubation in the dark at 37° C. for 1 hour, the reaction mixture was transferred to a clear 96 well plate, and the absorbance at 405 nm was read.
The IC50 values are calculated as the concentration of the compound being tested at which the phosphorylation of ATF2 is decreased to 50% of the control value.

JNK1 = JNK1 (Homo sapiens, UniProt P45983); assay: JNK1 SPA assay; details: phosphorylation of GST-c-Jun, 2 μM ATP
JNK1, sequence (P45983 whole entry): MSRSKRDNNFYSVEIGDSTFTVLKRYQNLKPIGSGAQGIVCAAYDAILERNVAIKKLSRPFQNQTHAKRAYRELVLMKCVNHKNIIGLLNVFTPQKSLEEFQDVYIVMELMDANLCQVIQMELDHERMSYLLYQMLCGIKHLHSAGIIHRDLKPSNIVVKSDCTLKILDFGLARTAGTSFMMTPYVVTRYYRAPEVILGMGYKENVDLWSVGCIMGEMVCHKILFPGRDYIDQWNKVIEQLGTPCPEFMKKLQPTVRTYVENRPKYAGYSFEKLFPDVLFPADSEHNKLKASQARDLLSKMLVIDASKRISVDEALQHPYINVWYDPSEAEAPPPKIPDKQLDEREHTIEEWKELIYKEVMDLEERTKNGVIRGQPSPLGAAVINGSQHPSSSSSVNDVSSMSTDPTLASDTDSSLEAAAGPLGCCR
Experimental: (§1) JNK1, JNK2, JNK3—SPA Assay
(§2) • 1. Compound is dissolved in DMSO to a convenient concentration and this is diluted in 10% DMSO to a five times concentrate of the desired starting concentration (frequently 1:100). • 2. 10 μl of 500 mM EDTA is added to alternative wells of the Opti-plate row, which will receive kinase reaction plus DMSO. This creates the negative control. • 3. For the JNK2 and JNK3 assay, compounds are prepared in six 2-fold dilutions with water and each concentration is tested in duplicate. For the JNK1 assay compounds are prepared in four 5-fold dilutions with water which are tested in triplicate. Controls are treated identically. • 4. 20 μl per well of each compound concentration is transferred to an Opti-plate, in duplicate. • 5. 30 μl (JNK2/3 SPA) or 50 μl (JNK1 SPA) of substrate solution (25 mM HEPES pH 7.5, 10 mM magnesium acetate with 3.33 μM ATP (JNK2/3) or 2 μM ATP (JNK1), approximately 7.5 kBq [γ-^33P] ATp, GST-c-Jun, in water) is added to each well. • 6. 50 μl (JNK2/3 SPA) or 30 μl (JNK1 SPA) of kinase solution (JNK in 25 mM HEPES pH 7.5, 10 mM Mg Acetate) is added to each well.
(§3) • 7. The plate is incubated for 30 minutes at room temperature. • 8. 100 μl of bead/stop solution is added to each well (5 mg/ml glutathione-PVT-SPA beads, 40 mM ATP in PBS). • 9. Plates are sealed and incubated for 30 minutes at room temperature, centrifuged for 10 minutes at 2500 g and counted. • 10. The IC50 values are calculated as the concentration of the compound being tested at which the phosphorylation of c-Jun is decreased to 50% of the control value.

JNK3 = JNK3 (Homo sapiens, UniProt P53779); assay: JNK3 SPA assay; details: phosphorylation of GST-c-Jun, 3.33 μM ATP
JNK3, sequence (P53779 whole entry): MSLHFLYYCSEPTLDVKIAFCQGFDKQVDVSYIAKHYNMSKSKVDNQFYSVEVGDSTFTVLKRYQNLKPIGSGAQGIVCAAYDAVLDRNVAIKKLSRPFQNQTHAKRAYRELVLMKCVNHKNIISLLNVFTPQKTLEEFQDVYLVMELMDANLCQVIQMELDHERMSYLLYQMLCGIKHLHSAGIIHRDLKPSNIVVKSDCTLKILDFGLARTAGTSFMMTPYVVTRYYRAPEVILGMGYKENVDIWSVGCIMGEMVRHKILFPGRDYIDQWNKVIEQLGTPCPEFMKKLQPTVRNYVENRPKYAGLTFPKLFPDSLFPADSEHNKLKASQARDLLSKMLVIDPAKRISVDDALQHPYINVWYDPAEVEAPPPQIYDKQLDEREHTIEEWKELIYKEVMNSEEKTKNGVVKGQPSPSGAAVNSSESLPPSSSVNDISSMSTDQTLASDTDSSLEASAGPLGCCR
Experimental: as §1, §2, §3

JNK2 = JNK2 (Homo sapiens, UniProt P45984); assay: JNK2 SPA assay; details: phosphorylation of GST-c-Jun, 3.33 μM ATP
JNK2, sequence (P45984 whole entry): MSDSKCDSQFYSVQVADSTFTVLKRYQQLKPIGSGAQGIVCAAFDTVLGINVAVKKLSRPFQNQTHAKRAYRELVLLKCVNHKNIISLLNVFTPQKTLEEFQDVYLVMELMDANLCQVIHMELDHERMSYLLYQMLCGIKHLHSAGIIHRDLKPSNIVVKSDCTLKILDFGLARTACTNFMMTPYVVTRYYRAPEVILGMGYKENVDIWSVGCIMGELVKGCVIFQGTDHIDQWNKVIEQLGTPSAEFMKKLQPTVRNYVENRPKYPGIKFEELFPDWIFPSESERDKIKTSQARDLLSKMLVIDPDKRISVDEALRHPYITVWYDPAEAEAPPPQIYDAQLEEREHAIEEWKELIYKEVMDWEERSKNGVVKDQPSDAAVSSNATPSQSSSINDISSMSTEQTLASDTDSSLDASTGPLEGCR
Experimental: as §1, §2, §3

T1 sequence (Q16539 whole entry): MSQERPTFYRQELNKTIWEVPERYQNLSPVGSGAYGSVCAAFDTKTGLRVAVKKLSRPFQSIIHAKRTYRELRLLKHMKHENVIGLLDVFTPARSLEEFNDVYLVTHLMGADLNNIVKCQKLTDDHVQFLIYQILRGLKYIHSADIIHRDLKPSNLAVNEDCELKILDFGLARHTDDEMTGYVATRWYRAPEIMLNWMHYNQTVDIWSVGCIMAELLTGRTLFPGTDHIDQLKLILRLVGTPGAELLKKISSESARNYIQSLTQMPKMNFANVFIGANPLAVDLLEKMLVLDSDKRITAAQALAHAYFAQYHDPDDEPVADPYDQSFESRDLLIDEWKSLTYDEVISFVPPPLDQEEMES

IC50 (p38 MAP kinase) [nM]	IC50 (JNK1) [nM]	IC50 (JNK3) [nM]	IC50 (JNK2) [nM]	Compound
> 10000	< 500	< 500	< 500	CN(C)c1ccc(-c2cnc3[nH]cc(-c4ccoc4)c3c2)cc1
> 10000	< 500	< 500	< 500	c1csc(-c2cnc3[nH]cc(-c4ccoc4)c3c2)c1
		< 500		CN(C)c1ccc(-c2cnc3[nH]cc(-c4cc[nH]c4)c3c2)cc1
> 10000	< 500	< 500	< 500	c1csc(-c2cnc3[nH]cc(-c4cncs4)c3c2)c1
		< 500		Fc1cccc(-c2c[nH]c3ncc(-c4ccccc4Oc4ccccc4)cc23)c1
		< 500		c1ccc(Oc2ccccc2-c2cnc3[nH]cc(-c4ccccc4)c3c2)cc1
